# Assay results as given in US11173137B2, “Compositions and methods to modulate chloride ion channel activity” (The Board of Trustees of the Leland Stanford Junior …, priority 2018, dated 2021).
# Several values for one entry are separate records, joined by “and”; a condition that tells them apart may be missing. Identical values can stand only once. Like-named read-outs stand apart in the source and are kept apart here.
# Columns and labels:
# CLC-2 [1] = molecular target: T1, CLC-2 (Homo sapiens (Human), UniProt P51788); assay: IonWorks Barracuda automated patch-clamp electrophysiology, human CLC-2 cell line; type: cell-based; details: for times greater potency towards CLC-2 compared to CLC-1: CLC-2 versus CLC-1
# T1 sequence (P51788 whole entry): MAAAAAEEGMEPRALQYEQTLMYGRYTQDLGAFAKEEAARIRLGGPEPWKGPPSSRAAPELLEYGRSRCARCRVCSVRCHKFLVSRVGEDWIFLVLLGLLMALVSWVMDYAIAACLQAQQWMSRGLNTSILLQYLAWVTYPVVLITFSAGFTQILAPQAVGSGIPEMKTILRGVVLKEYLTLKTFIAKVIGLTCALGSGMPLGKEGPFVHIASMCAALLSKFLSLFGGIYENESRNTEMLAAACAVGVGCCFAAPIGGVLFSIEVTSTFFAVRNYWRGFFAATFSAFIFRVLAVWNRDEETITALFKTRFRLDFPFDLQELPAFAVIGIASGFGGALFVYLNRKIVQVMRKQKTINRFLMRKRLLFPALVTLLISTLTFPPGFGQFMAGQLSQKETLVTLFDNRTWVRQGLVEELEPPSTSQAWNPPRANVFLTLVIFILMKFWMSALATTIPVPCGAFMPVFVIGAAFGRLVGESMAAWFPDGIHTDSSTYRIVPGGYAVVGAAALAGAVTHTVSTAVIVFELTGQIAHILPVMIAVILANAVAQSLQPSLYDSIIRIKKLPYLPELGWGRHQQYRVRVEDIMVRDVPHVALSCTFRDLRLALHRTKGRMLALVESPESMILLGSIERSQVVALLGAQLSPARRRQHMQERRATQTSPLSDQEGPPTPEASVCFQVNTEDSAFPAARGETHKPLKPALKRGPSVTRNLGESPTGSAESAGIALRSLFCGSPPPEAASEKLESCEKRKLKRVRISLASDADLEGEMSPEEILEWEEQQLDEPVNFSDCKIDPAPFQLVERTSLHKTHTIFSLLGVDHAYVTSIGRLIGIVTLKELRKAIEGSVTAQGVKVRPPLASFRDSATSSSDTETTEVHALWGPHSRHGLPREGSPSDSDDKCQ
# Source text: FIG. 8, panels A and B depict graphically the Selectivity between CLC-1 and CLC-2. […]
# CLC-1 = CLC-1 (Homo sapiens (Human), UniProt P35523); assay: two-electrode voltage clamp electrophysiology in Xenopus oocytes, CLC-1; type: cell-based; details: preliminary data, read-out: IC50 against CLC-1
# 5-HT2B = 5-HT2B (Homo sapiens (Human), UniProt P41595); assay: PDSP primary binding assay; details: primary binding assay at 10 μM
# Protocol: (§1) Two exemplary compounds, FA44 and FA26, were screened against a panel of CNS receptors, transporters, and ion channels to examine specificity for CLC-2 in the brain. A comprehensive primary binding assay screen was performed through the NIH Psychoactive Drug Screening Program (PDSP) at UNC-Chapel Hill. Secondary or functional assays were performed for compounds showing >50% activity in the primary assay.
# AMPA = assay: PDSP primary binding assay; details: primary binding assay at 10 μM
# Protocol: as §1
# Alpha1B = Alpha1B (Homo sapiens (Human), UniProt P35368); assay: PDSP primary binding assay; details: primary binding assay at 10 μM
# Protocol: as §1
# Beta2 = Beta2 (Homo sapiens (Human), UniProt P07550); assay: PDSP primary binding assay; details: primary binding assay at 10 μM
# Protocol: as §1
# H4 = H4 (Homo sapiens (Human), UniProt Q9H3N8); assay: PDSP primary binding assay; details: primary binding assay at 10 μM
# Protocol: as §1
# KA = assay: PDSP primary binding assay; details: primary binding assay at 10 μM
# Protocol: as §1
# KOR = KOR (Homo sapiens (Human), UniProt P41145); assay: PDSP primary binding assay; details: primary binding assay at 10 μM
# Protocol: as §1
# Sigma 2 = Sigma 2 (Homo sapiens (Human), UniProt Q5BJF2); assay: PDSP primary binding assay; details: primary binding assay at 10 μM
# Protocol: as §1
# 5-HT1A = 5-HT1A (Homo sapiens (Human), UniProt P08908); assay: PDSP primary binding assay and secondary assay; details: for % (10 μM): primary binding assay at 10 μM; for Ki: secondary or functional assay
# 5-HT1A, sequence (P08908 whole entry, species assumed): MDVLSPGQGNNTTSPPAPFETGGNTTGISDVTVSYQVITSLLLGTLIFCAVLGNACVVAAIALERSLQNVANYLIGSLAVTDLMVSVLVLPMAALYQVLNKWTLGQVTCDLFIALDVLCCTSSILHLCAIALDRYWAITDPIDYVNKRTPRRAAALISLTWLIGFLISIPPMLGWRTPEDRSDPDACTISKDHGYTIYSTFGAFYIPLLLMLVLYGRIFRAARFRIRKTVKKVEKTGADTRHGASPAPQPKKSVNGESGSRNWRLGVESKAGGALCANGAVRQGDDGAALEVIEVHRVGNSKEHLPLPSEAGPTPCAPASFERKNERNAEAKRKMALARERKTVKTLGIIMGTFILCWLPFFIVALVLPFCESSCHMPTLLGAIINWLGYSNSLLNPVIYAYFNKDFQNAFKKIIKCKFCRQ
# Protocol: as §1
# Alpha2A = Alpha2A (Homo sapiens (Human), UniProt P08913); assay: PDSP primary binding assay and secondary assay; details: for % (10 μM): primary binding assay at 10 μM
# Alpha2A, sequence (P08913 whole entry): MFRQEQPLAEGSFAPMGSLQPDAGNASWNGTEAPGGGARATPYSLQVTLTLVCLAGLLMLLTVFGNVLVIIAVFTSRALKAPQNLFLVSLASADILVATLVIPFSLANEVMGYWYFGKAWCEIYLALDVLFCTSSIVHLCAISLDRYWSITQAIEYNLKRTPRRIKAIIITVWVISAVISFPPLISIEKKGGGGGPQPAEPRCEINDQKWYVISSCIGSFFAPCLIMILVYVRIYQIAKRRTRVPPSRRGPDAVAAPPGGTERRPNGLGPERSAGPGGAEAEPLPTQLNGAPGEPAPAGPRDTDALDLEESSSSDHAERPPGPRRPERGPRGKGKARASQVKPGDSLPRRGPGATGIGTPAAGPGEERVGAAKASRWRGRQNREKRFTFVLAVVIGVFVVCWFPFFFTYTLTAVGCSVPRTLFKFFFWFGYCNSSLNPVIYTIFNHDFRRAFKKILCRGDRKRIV
# Protocol: as §1
# HERG = HERG (Homo sapiens (Human), UniProt Q12809); assay: PDSP primary binding assay and secondary assay; details: for % (10 μM): primary binding assay at 10 μM
# HERG, sequence (Q12809 whole entry): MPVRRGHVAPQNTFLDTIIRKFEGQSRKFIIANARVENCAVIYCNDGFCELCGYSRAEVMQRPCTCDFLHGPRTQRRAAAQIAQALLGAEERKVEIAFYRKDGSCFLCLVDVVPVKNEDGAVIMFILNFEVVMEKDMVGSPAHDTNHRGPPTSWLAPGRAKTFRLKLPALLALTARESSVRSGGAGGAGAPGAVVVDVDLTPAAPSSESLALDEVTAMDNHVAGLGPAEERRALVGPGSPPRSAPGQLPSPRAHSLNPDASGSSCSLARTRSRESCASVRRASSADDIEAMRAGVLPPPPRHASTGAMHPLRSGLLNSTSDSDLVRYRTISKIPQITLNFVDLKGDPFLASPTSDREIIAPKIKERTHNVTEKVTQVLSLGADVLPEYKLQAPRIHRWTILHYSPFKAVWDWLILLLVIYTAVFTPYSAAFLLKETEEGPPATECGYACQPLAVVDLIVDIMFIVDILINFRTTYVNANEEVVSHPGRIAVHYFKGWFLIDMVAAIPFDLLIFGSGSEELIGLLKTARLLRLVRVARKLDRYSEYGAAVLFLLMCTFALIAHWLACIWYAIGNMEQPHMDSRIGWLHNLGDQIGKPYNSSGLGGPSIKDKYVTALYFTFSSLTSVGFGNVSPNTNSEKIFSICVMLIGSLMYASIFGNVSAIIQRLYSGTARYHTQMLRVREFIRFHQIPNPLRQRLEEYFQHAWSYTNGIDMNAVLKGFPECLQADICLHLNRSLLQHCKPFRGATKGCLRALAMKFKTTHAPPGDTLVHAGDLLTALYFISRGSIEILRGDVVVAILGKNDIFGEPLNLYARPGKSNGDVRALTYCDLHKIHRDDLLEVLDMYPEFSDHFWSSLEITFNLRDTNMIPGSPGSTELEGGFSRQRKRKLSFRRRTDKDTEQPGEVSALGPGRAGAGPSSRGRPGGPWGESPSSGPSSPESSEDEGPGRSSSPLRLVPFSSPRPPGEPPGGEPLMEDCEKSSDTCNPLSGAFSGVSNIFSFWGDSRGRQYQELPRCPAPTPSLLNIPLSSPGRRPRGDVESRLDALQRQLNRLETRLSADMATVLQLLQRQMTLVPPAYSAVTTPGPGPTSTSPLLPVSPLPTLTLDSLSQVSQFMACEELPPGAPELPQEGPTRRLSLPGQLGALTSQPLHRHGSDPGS
# Protocol: as §1
# M1 = M1 (Homo sapiens (Human), UniProt P11229); assay: PDSP primary binding assay and secondary assay; details: for % (10 μM): primary binding assay at 10 μM
# M1, sequence (P11229 whole entry): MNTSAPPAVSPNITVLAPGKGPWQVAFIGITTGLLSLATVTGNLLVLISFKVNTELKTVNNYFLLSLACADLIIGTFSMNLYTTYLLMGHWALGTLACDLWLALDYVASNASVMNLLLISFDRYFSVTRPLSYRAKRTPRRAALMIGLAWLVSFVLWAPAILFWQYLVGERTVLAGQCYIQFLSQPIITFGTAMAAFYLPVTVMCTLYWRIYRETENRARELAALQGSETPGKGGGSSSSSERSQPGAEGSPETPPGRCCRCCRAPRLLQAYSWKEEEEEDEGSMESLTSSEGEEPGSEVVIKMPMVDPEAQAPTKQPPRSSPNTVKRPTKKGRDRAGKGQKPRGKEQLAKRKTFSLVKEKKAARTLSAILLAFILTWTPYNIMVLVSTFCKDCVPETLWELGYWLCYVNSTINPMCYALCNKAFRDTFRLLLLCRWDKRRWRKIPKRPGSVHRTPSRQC
# Protocol: as §1
# M3 = M3 (Homo sapiens (Human), UniProt P20309); assay: PDSP primary binding assay and secondary assay; details: for % (10 μM): primary binding assay at 10 μM; for Ki: secondary or functional assay
# M3, sequence (P20309 whole entry): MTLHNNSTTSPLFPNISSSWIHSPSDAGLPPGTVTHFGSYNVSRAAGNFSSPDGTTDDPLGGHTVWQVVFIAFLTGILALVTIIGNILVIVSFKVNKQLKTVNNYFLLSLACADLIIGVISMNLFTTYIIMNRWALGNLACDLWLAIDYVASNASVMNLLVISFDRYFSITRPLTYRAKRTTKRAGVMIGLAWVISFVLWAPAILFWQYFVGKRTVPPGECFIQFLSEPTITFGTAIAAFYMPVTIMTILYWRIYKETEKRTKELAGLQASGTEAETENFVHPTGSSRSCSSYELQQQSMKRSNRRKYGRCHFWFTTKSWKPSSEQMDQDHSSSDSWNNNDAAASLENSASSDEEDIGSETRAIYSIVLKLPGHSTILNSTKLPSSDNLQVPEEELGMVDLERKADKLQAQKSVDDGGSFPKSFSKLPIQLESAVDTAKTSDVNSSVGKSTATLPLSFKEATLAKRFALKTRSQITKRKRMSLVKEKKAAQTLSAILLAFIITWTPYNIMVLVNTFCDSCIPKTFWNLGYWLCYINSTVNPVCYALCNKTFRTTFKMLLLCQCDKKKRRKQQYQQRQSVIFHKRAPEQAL
# Protocol: as §1
# M4 = M4 (Homo sapiens (Human), UniProt P08173); assay: PDSP primary binding assay and secondary assay; details: for % (10 μM): primary binding assay at 10 μM
# M4, sequence (P08173 whole entry): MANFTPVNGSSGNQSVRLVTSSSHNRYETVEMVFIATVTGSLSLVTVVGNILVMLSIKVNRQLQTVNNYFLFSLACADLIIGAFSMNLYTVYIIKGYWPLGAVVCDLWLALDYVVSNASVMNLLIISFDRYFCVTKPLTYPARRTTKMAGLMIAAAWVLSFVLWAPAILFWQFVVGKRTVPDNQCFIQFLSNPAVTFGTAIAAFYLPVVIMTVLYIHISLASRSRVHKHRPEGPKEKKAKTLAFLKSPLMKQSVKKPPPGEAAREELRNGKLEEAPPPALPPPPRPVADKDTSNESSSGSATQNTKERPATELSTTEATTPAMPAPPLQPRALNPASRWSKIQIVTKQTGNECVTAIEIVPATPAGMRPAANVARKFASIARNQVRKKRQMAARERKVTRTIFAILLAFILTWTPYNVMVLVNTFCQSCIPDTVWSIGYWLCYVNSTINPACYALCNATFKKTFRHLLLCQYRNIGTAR
# Protocol: as §1
# M5 = M5 (Homo sapiens (Human), UniProt P08912); assay: PDSP primary binding assay and secondary assay; details: for % (10 μM): primary binding assay at 10 μM; for Ki: secondary or functional assay
# M5, sequence (P08912 whole entry): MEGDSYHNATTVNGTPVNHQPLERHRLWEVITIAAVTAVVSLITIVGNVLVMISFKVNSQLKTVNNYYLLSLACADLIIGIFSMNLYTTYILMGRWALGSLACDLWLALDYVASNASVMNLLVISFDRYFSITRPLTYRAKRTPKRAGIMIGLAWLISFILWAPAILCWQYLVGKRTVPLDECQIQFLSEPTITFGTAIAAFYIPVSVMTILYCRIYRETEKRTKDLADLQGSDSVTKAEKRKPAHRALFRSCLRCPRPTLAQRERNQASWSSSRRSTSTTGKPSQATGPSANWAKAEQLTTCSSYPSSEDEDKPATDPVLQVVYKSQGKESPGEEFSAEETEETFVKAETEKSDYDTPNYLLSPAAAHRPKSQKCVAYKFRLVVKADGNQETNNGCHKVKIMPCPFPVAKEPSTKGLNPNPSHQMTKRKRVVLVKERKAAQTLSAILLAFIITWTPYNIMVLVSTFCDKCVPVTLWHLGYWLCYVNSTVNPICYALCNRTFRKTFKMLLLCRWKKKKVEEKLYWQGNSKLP
# Protocol: as §1
# mGluR5 = mGluR5 (Homo sapiens (Human), UniProt P41594); assay: PDSP primary binding assay and secondary assay; details: for % (10 μM): primary binding assay at 10 μM; for Ki: secondary or functional assay
# Protocol: as §1
# mGluR1 = mGluR1 (Homo sapiens (Human), UniProt Q13255); assay: PDSP functional assay; type: biochemical; details: only a functional assay was performed
# Protocol: as §1
# mGluR2 = mGluR2 (Homo sapiens (Human), UniProt Q14416); assay: PDSP functional assay; type: biochemical; details: only a functional assay was performed
# Protocol: as §1
# mGluR4 = mGluR4 (Homo sapiens (Human), UniProt Q14833); assay: PDSP functional assay; type: biochemical; details: only a functional assay was performed
# Protocol: as §1
# mGluR6 = mGluR6 (Homo sapiens (Human), UniProt O15303); assay: PDSP functional assay; type: biochemical; details: only a functional assay was performed
# Protocol: as §1
# mGluR8 = mGluR8 (Homo sapiens (Human), UniProt O00222); assay: PDSP functional assay; type: biochemical; details: only a functional assay was performed
# Protocol: as §1
# CLC-2 [2] = molecular target: T1, CLC-2; details: preliminary data, Xenopus oocytes
# [3] = tested on: panel of CNS receptors, channels, and transporters; assay: PDSP screen against panel of CNS receptors, transporters, and ion channels (overall); type: binding
# Protocol: as §1
# A2A = A2A (Homo sapiens (Human), UniProt P29274); assay: PDSP primary binding assay; details: primary binding assay at 10 μM
# Protocol: as §1
# V1A = V1A (Homo sapiens (Human), UniProt P37288); assay: PDSP primary binding assay; details: primary binding assay at 10 μM
# Protocol: as §1
# V1B = V1B (Homo sapiens (Human), UniProt P47901); assay: PDSP primary binding assay; details: primary binding assay at 10 μM
# Protocol: as §1
# [4] = n = 4 cells, four concentrations of each compound, IonWorks Barracuda, read-out: IC50 (μM) against CLC-2
Compound,IC50 (CLC-2 [1]; [4]),% (10 μM) (5-HT2B),% (10 μM) (AMPA),% (10 μM) (Alpha1B),% (10 μM) (Beta2),% (10 μM) (H4),% (10 μM) (KA),% (10 μM) (KOR),% (10 μM) (Sigma 2),% (10 μM) (5-HT1A),Ki (5-HT1A),% (10 μM) (Alpha2A),% (10 μM) (HERG),% (10 μM) (M1),% (10 μM) (M3),Ki (M3),% (10 μM) (M4),% (10 μM) (M5),Ki (M5),% (10 μM) (mGluR5),further results
O=C(O)c1ccccc1Nc1c(Cl)ccc(OCc2ccccc2)c1Cl [AK3-99B],0.62 µM,14.38%,21.14%,4.33%,−8.08%,8.29%,13.56%,29.90%,−9.10%,50.00%,> 10 µM,65.08%,−15.95%,58.54%,65.66%,> 10 µM,−3.01%,56.99%,> 10 µM,47.44%,"IC50 (CLC-2 [1]; Table 2, read-out: IC50 (CLC-2)): 1.7 ± 0.2 µM; IC50 (CLC-2 [1]; text and FIG. 3, Table 1 series, read-out: IC50 against CLC-2): ~0.6 µM and 0.6 µM; IC50 (CLC-1): > 250 µM; Ki (Alpha2A; secondary or functional assay): 3 µM; Ki (M1; secondary or functional assay): > 10 µM; Ki (mGluR5): > 10 µM; Ki (mGluR1): > 10 µM; Ki (mGluR2): > 10 µM; Ki (mGluR4): > 10 µM; Ki (mGluR6): > 10 µM; Ki (mGluR8): > 10 µM; selectivity among CLC-1, CLC-2, CLC-Ka, CLC-Kb (CLC-2 [2]): selective for CLC-2"
O=C(O)c1cccnc1Nc1c(Cl)ccc(OCc2ccccc2)c1Cl [AK3-238],< 0.12 µM,45.16%,28.20%,4.90%,4.77%,2.23%,36.60%,4.11%,−8.14%,53.99%,> 10 µM,−2.55%,−43.87%,11.29%,54.64%,> 3 µM,56.16%,13.55%,> 10 µM,57.39%,"% inhibition at the concentration listed (in parenthesis) (CLC-2 [1]; CLC-2, at the concentration listed in the IC50 cell, negative = increase in peak current): (90%); times greater potency towards CLC-2 compared to CLC-1 (CLC-2 [1]): approximately 10,000 times; times greater potency towards CLC-2 compared to CLC-1 (CLC-2 [1]; listed as FA44): 10,000 times; selectivity CLC-2 over CLC-1 (CLC-2 [1]; FIG. 8 panel A): selective for CLC-2 over CLC-1; IC50 (CLC-2 [1]; Table 2 / FIG. 8, 16 concentrations, n=4-8, −120 mV, read-out: IC50 (CLC-2)): 0.017 ± 0.002 µM; off-target effects among panel of CNS receptors, channels, and transporters [3]: no off-target effects; % (10 μM) (A2A): −8.70%; % (10 μM) (V1A): 23.96%; % (10 μM) (V1B): 40.53%; Ki (HERG; secondary or functional assay): > 10 µM; Ki (M4; secondary or functional assay): > 5 µM; Ki (mGluR5): > 10 µM; Ki (mGluR1): > 10 µM"
